Like-named read-outs stand apart in the source and are kept apart here.
Columns and labels:
EGFR^L858R/T790M/C797S = EGFR^L858R/T790M/C797S (Homo sapiens, UniProt P00533, C797S/L858R/T790M); assay: HTRF KinEASE-TK in vitro kinase assay, KINASE LTC; type: biochemical
Text: (§1) The biological activity of compounds described herein were studied according to standard methods known in the art. Methods were used to study inhibition of EGFR, including mutant forms of EGFR comprising L858R, T790M, C797S, and/or Del19 mutations, or any combination thereof (e.g., L858R single, double, or triple mutants). Exemplary, non-limiting methods are described herein.
(§2) Assays using an in vitro kinase assay kit (HTRF KinEASE-TK kit) were used to study the inhibitory activity of compounds described herein with respect to EGFR mutants such as (1) EGFRL858R, (2) EGFR^L858R/T790M, and (3) EGFR^L858R/T790M/C797S.

Ba/F3 EGFR-Del19/C797S = Ba/F3 EGFR-Del19/C797S (Homo sapiens, UniProt P00533, C797S, cells depend on it, form not given); assay: Ba/F3 viability assay (CellTiter-Glo), BAF3 DC; type: cell-based; settings: Ba/F3 EGFR-Del19/C797S cell viability
Text: as §1
(§3) Inhibition of cell proliferation was studied using Ba/F3 viability assays, including the Promega CellTiter-Glo cell viability assay. This assay was used to study the effect of compounds described herein in the following assays: (1) Ba/F3 EGFR-Del19/T790M; (2); Ba/F3 EGFR-Del19/C797S; and (3) Ba/F3 EGFR-Del19/T790M/C797S. P-EGFR Signaling Assays

EGFRL858R = EGFRL858R (Homo sapiens, UniProt P00533, L858R); assay: HTRF KinEASE-TK in vitro kinase assay, KINASE L; type: biochemical; settings: EGFR L858R kinase
Text: as §1, §2

[1] = biological target: Ba/F3 EGFR-Del19/T790M/C797S (Homo sapiens, UniProt P00533, T790M/C797S, cells depend on it, form not given); assay: Ba/F3 viability assay (CellTiter-Glo), BAF3 DTC; type: cell-based; settings: Ba/F3 EGFR-Del19/T790M/C797S cell viability
Text: as §1, §3

EGFR^L858R/T790M = EGFR^L858R/T790M (Homo sapiens, UniProt P00533, L858R/T790M); assay: HTRF KinEASE-TK in vitro kinase assay, KINASE LT; type: biochemical
Text: as §1, §2

Ba/F3 EGFR-Del19/T790M = Ba/F3 EGFR-Del19/T790M (Homo sapiens, UniProt P00533, T790M, cells depend on it, form not given); assay: Ba/F3 viability assay (CellTiter-Glo), BAF3 DT; type: cell-based; settings: Ba/F3 EGFR-Del19/T790M cell viability
Text: as §1, §3

[2] = amide bond, TBTU/Et3N, DCM, 20.0 °C
[3] = from Cc1cc(C(=O)O)cc(-c2cnn(C)c2CCCC[C@@H](C)Cn2c(N)nc3ccc(Br)cc32)n1; amide bond; TBTU, TEA; DCM; 2.75 mM; 20.0 °C; 2.0 h

Sequence of EGFR^L858R/T790M (P00533 25-1210 T790M/L858R): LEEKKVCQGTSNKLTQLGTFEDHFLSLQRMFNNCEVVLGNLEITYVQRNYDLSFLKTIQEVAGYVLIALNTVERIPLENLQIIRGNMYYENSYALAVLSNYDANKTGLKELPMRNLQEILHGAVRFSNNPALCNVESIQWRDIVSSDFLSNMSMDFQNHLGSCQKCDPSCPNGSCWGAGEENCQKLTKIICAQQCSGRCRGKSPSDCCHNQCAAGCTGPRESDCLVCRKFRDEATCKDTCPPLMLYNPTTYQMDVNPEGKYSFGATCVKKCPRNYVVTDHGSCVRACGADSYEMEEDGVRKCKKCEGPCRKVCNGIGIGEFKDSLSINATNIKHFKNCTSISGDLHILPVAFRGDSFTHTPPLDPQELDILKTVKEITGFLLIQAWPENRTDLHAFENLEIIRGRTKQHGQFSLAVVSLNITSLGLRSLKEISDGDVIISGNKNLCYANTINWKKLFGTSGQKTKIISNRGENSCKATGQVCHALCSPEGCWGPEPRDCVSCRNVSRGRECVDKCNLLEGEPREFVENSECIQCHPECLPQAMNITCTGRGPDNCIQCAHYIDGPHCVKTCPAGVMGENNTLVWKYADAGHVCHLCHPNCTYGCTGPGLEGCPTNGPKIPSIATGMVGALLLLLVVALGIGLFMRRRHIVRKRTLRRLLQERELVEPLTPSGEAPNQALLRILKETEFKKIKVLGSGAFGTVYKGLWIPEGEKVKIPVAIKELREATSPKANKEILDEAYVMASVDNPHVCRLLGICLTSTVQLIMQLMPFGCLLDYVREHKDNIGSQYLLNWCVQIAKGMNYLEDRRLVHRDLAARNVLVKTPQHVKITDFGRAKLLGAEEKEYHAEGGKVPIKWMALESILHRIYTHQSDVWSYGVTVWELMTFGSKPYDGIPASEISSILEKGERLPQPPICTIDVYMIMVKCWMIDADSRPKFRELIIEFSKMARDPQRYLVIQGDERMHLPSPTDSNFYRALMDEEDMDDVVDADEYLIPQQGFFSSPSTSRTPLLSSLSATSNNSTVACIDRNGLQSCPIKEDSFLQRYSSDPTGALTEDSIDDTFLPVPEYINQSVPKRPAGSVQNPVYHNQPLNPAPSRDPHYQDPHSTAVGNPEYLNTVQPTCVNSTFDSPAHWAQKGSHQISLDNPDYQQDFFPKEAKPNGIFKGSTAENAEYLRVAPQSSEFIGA
Sequence of EGFR^L858R/T790M/C797S (P00533 25-1210 T790M/C797S/L858R): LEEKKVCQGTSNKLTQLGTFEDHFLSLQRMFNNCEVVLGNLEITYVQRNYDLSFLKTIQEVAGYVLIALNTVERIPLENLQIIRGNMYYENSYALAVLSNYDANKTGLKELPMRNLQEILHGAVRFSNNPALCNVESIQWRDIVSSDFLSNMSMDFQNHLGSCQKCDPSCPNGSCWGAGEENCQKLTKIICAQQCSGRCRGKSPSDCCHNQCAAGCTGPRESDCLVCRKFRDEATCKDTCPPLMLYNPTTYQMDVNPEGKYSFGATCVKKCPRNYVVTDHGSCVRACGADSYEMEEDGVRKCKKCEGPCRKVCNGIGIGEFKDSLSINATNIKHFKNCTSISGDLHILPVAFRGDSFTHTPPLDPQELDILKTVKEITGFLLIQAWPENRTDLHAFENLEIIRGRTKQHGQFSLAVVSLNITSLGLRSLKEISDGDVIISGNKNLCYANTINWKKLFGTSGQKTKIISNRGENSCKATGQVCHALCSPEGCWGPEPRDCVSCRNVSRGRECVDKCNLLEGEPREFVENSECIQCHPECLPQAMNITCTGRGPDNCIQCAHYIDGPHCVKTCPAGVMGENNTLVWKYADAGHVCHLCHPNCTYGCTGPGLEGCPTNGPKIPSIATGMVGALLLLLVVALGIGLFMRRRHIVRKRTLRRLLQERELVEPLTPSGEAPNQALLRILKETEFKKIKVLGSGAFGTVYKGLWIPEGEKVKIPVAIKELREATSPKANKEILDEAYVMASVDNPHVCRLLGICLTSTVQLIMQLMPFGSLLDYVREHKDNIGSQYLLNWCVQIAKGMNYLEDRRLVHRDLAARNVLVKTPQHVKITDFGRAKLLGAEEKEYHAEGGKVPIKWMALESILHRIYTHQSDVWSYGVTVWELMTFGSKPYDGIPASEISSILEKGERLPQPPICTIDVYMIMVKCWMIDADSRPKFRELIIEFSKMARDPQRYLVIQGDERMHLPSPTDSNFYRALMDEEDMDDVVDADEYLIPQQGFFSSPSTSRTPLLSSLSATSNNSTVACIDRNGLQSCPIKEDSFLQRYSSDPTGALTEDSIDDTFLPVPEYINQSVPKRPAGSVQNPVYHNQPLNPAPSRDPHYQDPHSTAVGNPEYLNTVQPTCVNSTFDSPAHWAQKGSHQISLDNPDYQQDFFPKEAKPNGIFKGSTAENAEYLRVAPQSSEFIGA
Sequence of Ba/F3 EGFR-Del19/T790M (P00533 with tags, fused parts or gaps DEL746-750/T790M, form open): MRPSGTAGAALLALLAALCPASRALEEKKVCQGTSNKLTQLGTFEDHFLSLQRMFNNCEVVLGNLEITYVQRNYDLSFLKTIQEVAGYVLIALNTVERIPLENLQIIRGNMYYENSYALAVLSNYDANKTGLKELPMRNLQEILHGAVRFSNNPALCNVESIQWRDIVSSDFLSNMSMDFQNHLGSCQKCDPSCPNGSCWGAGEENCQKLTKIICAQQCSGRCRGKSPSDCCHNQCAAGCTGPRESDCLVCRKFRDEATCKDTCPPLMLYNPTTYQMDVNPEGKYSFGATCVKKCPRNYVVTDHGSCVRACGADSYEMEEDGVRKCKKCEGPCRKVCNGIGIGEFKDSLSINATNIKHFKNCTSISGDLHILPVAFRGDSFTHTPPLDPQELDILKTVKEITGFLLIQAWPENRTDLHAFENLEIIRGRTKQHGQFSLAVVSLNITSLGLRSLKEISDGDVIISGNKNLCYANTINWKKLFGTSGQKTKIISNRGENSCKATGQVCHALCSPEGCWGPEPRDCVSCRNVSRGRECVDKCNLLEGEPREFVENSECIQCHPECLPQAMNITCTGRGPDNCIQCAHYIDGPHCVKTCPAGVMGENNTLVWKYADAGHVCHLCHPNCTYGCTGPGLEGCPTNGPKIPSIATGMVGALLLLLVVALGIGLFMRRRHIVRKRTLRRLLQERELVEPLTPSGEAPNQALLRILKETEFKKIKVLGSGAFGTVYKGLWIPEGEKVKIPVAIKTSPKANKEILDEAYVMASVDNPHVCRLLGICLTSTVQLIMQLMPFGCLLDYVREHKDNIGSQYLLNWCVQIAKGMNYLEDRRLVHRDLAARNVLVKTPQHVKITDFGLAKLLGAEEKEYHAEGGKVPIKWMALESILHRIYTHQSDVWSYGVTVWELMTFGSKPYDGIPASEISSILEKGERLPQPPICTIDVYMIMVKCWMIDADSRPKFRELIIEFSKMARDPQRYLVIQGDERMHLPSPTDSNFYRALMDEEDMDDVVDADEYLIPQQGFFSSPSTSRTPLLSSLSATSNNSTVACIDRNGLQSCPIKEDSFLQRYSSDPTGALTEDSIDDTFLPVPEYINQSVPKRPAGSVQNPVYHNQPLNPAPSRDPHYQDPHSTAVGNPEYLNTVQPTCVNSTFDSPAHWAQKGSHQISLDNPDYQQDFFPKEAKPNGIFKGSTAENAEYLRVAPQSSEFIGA
Sequence of Ba/F3 EGFR-Del19/T790M/C797S (P00533 with tags, fused parts or gaps DEL746-750/T790M/C797S, form open): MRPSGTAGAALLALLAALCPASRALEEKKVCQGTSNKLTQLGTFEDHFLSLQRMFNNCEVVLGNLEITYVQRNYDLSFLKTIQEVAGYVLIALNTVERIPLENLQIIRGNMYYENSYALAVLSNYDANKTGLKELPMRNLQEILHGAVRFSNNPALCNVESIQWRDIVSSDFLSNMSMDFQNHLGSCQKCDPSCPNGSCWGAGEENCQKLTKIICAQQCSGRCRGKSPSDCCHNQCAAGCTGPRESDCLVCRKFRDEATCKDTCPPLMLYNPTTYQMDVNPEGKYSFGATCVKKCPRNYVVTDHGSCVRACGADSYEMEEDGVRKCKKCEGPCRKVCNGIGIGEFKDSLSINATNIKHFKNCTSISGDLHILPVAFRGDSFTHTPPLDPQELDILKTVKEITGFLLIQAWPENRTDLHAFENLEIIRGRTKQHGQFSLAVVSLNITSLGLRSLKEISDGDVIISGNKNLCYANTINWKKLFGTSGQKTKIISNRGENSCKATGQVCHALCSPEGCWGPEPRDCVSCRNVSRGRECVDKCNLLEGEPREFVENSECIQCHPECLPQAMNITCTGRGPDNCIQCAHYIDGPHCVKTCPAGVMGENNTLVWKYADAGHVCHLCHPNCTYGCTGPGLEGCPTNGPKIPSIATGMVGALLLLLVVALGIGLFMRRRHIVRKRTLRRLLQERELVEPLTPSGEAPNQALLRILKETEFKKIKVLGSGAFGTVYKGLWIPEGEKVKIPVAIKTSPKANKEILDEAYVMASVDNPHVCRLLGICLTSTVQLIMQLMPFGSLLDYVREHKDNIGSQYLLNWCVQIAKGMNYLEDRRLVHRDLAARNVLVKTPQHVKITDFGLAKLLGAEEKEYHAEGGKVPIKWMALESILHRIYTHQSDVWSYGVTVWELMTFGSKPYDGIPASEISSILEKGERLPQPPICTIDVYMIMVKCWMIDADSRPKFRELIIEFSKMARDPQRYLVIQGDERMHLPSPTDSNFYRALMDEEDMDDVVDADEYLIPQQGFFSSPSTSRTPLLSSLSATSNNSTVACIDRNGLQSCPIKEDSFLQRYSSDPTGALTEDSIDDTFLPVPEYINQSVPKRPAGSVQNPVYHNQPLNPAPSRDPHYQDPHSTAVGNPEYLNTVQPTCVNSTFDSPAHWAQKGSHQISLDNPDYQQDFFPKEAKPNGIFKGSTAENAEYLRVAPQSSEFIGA

| SMILES | IC50 (EGFR^L858R/T790M/C797S) | GI50 (Ba/F3 EGFR-Del19/C797S) | IC50 (EGFRL858R) | GI50 [1] | IC50 (EGFR^L858R/T790M) | GI50 (Ba/F3 EGFR-Del19/T790M) | ring closure, isolated yield ([2]; from Cc1cc(C(=O)O)cc(-c2cnn(C)c2CCC[C@@H](C)Cn2c(N)nc3ccc(Br)cc32)n1, 14-membered ring, 5.05 mM) | ring closure, isolated yield ([2]; from Cc1cc(C(=O)O)cc(-c2cnn(C)c2CCCC[C@@H](C)Cn2c(N)nc3ccc(Br)cc32)n1, 15-membered ring, 2.75 mM) | ring closure, yield of all isomers [3] |
| --- | --- | --- | --- | --- | --- | --- | --- | --- | --- |
| Cc1cc2cc(n1)-c1cnn(C)c1CCC[C@@H](C)CN1/C(=N/C2=O)Nc2c(C)cc(N3CCN(C)CC3)cc21 [(2)] | < 50 nM | 50 to 100 nM | < 50 nM | < 50 nM | < 50 nM | < 50 nM | – | – | – |
| Cc1cc2cc(n1)-c1cnn(C)c1-c1cccc(c1)C(C)CN1/C(=N/C2=O)Nc2ccc(C(=O)N3CCN(C)CC3)cc21 (stereo not drawn) [(57)] | < 50 nM | 100 to 1000 nM | 100 to 1000 nM | 100 to 1000 nM | < 50 nM | ≥ 1000 nM | – | – | – |
| Cc1cc2cc(n1)-c1cnn(C)c1CCC[C@@H](C)CN1/C(=N/C2=O)Nc2ccc(CN3CCN(CCF)CC3)cc21 [(25)] | < 50 nM | < 50 nM | < 50 nM | < 50 nM | < 50 nM | < 50 nM | – | – | – |
| Cc1cc2cc(n1)-c1cnn(C)c1CCC[C@@H](C)CN1/C(=N/C2=O)Nc2ccc(Br)cc21 | – | – | – | – | – | – | 60.5% | – | – |
| Cc1cc2cc(n1)-c1cnn(C)c1CCCCCCN1/C(=N/C2=O)Nc2ccc(CN3CCOCC3)cc21 [(62)] | 100 to 1000 nM | 50 to 100 nM | < 50 nM | 100 to 1000 nM | 100 to 1000 nM | ≥ 1000 nM | – | – | – |
| Cc1cc2cc(n1)-c1cnn(C)c1CCC[C@@H](C)CN1/C(=N/C2=O)Nc2ccc(CN3CCN(C)CC3)cc21 [(35)] | < 50 nM | < 50 nM | < 50 nM | < 50 nM | < 50 nM | < 50 nM | – | – | – |
| Cc1cc2cc(n1)-c1cnn(C)c1CCC[C@@H](C)CN1/C(=N/C2=O)Nc2ccc(N3C[C@@H](C)N(C)[C@@H](C)C3)cc21 [(11)] | < 50 nM | < 50 nM | < 50 nM | < 50 nM | < 50 nM | < 50 nM | – | – | – |
| Cc1cc2cc(n1)-c1cnn(C)c1CCC[C@@H](C)CN1/C(=N/C2=O)Nc2ccc(N3CCN(C(C)C)CC3)cc21 [(28)] | < 50 nM | < 50 nM | < 50 nM | < 50 nM | < 50 nM | < 50 nM | – | – | – |
| Cc1cc2cc(n1)-c1cnn(C)c1CCCO[C@@H](C)CN1/C(=N/C2=O)Nc2ccc(CN3CCN(C)CC3)cc21 [Compound (55), (11S,21E)-5,11,26-trimethyl-16-[(4-methylpiperazin-1-yl)methyl]-10-oxa-4,5,13,20,22,27-hexazapentacyclo[22.3.1.02,6.013,21.014,19]octacosa-1(28),2(6),3,14(19),15,17,21,24,26-nonaen-23-one] | < 50 nM | 100 to 1000 nM | 100 to 1000 nM | 50 to 100 nM | < 50 nM | 100 to 1000 nM | – | – | – |
| Cc1cc2cc(n1)-c1cnn(C)c1CCCCCN1/C(=N/C2=O)Nc2ccc(CN3CCNCC3)cc21 [(46)] | < 50 nM | < 50 nM | < 50 nM | < 50 nM | < 50 nM | < 50 nM | – | – | – |
| Cc1cc2cc(n1)-c1cnn(C)c1CCC[C@@H](C)CN1/C(=N/C2=O)Nc2ccc(N3CCC(N4CCOCC4)CC3)cc21 [(24)] | < 50 nM | < 50 nM | < 50 nM | < 50 nM | < 50 nM | < 50 nM | – | – | – |
| Cc1cc2cc(n1)-c1cnn(C)c1CCCC[C@@H](C)Cn1c(nc3ccc(Br)cc31)NC2=O | – | – | – | – | – | – | – | 72.7% | 72.7% |
| Cc1cc2cc(n1)-c1cnn(C)c1CCC[C@@H](C)CN1/C(=N/C2=O)Nc2ccc(OC3CCNCC3)cc21 [(15)] | < 50 nM | < 50 nM | < 50 nM | < 50 nM | < 50 nM | < 50 nM | – | – | – |
| COc1ccncc1-c1ccc2c(c1)N1C[C@H](C)CCCc3c(cnn3C)-c3cc(cc(C)n3)C(=O)/N=C/1N2 [(9)] | < 50 nM | < 50 nM | < 50 nM | < 50 nM | < 50 nM | < 50 nM | – | – | – |
| Cc1cc2cc(n1)-c1cnn(C)c1-c1cccc(c1)CN1/C(=N/C2=O)Nc2ccc(CN3CCN(C)CC3)cc21 [(61)] | < 50 nM | 100 to 1000 nM | 100 to 1000 nM | 100 to 1000 nM | < 50 nM | 100 to 1000 nM | – | – | – |
| Cc1cc2cc(n1)-c1cnn(C)c1CCCCCN1/C(=N/C2=O)Nc2ccc(CN3CCN(C)CC3)cc21 [(69)] | < 50 nM | < 50 nM | < 50 nM | < 50 nM | < 50 nM | < 50 nM | – | – | – |
| COc1cc(N2CCN(C)CC2)cc2c1N/C1=N\C(=O)c3cc(C)nc(c3)-c3cnn(C)c3CCC[C@@H](C)CN12 [(3)] | < 50 nM | 100 to 1000 nM | < 50 nM | < 50 nM | < 50 nM | 50 to 100 nM | – | – | – |
| Cc1cc2cc(n1)-c1cnn(C)c1CCCCCCN1/C(=N/C2=O)Nc2ccc(CN3CCN(C)CC3)cc21 [(64)] | < 50 nM | 50 to 100 nM | < 50 nM | < 50 nM | < 50 nM | < 50 nM | – | – | – |
| Cc1ccc(-c2ccc3c(c2)N2C[C@H](C)CCCc4c(cnn4C)-c4cc(cc(C)n4)C(=O)/N=C/2N3)cn1 [Compound (10), (10R,20E)-5,10,25-trimethyl-15-(6-methyl-3-pyridyl)-4,5,12,19,21,26-hexazapentacyclo[21.3.1.02,6.012,20.013,18]heptacosa-1(27),2(6),3,13(18),14,16,20,23,25-nonaen-22-one] | < 50 nM | < 50 nM | < 50 nM | < 50 nM | < 50 nM | < 50 nM | – | – | – |
| Cc1cc2cc(n1)-c1cnn(C)c1CCC[C@@H](C)CN1/C(=N/C2=O)Nc2ccc(N3CCC(N4CC[C@H](N(C)C)C4)CC3)cc21 [(4)] | < 50 nM | < 50 nM | < 50 nM | < 50 nM | < 50 nM | < 50 nM | – | – | – |
| Cc1cc2cc(n1)-c1cnn(C)c1CCC[C@@H](C)CN1/C(=N/C2=O)Nc2ccc(N(CCN(C)C)CC3COC3)cc21 [(18)] | < 50 nM | 100 to 1000 nM | < 50 nM | < 50 nM | < 50 nM | 50 to 100 nM | – | – | – |
| Cc1cc2cc(n1)-c1cnn(C)c1CCCCCCN1/C(=N/C2=O)Nc2ccc(N(C)CCN(C)C)cc21 [(40)] | < 50 nM | 100 to 1000 nM | < 50 nM | < 50 nM | < 50 nM | < 50 nM | – | – | – |
